Measurements: ChEMBL document CHEMBL3885861, “Open TG-GATES”

Species on record: Rattus norvegicus
Assay: Open TG-GATES - Regimen: Daily Repeat
Format: toxicity, organism-based, Sprague-Dawley
Design: regimen Daily Repeat, gender Male, age 6 weeks
Settings: in vivo, iv, 1000 mg/kg, route intravenous injection, dose level Middle; for APTT / Bas / Eos / Fbg / Hb / Ht / Lym / MCH / MCHC / MCV / Mono / Neu / PT / Plat / RBC / Ret / WBC: tissue Blood; for KIDNEY_L / KIDNEY_R / KIDNEY_TOTAL: tissue Kidney; for LIVER: tissue Liver; for ALP / ALT / AST / BUN / CRE / Ca / Cl / DBIL / GLC / IP / K / LDH / Na / PL / RALB / TBIL / TC / TG / TP / gamma-GTP: tissue Plasma

With `CC(=O)OCC1=C(C(=O)O)N2C(=O)[C@@H](NC(=O)Cc3cccs3)[C@H]2SC1` [CEPHALOTHIN] the TERMINAL_BW (72 h, time 3 day) was 236.8 g, the APTT (72 h, time 3 day) was 22.6 s and the Bas (72 h, time 3 day) was 0%. The Eos (72 h, time 3 day) was 1%, the Fbg (72 h, time 3 day) was 308.4 mg/dL and the Hb (72 h, time 3 day) was 13.4 g/dL. It also gave a Ht (72 h, time 3 day) of 38.7%, a Lym (72 h, time 3 day) of 87.2% and an MCH (72 h, time 3 day) of 21.3 pg. The MCHC (72 h, time 3 day) was 34.7%, the MCV (72 h, time 3 day) was 61.6 fL and the Mono (72 h, time 3 day) was 2.6%. For the same compound, the Neu (72 h, time 3 day) was 8.2%, the PT (72 h, time 3 day) was 16 s and the Plat (72 h, time 3 day) was 120.2 x10_4/uL. It also gave an RBC (72 h, time 3 day) of 630.2 x10_4/ul, a Ret (72 h, time 3 day) of 5% and a WBC (72 h, time 3 day) of 80.1 x10_2/uL. For the same compound, the KIDNEY_L (72 h, time 3 day) was 1 g, the KIDNEY_R (72 h, time 3 day) was 1 g and the KIDNEY_TOTAL (72 h, time 3 day) was 2 g. The LIVER (72 h, time 3 day) was 10.2 g, the ALP (72 h, time 3 day) was 1638.6 IU/L and the ALT (72 h, time 3 day) was 44.6 IU/L. For the same compound, the AST (72 h, time 3 day) was 71.2 IU/L, the BUN (72 h, time 3 day) was 18 mg/dL and the CRE (72 h, time 3 day) was 0.2 mg/dL. For the same compound, the Ca (72 h, time 3 day) was 10.6 mg/dL, the Cl (72 h, time 3 day) was 105.2 meq/L and the DBIL (72 h, time 3 day) was 0 mg/dL. The GLC (72 h, time 3 day) was 160 mg/dL, the IP (72 h, time 3 day) was 7.1 mg/dL and the K (72 h, time 3 day) was 4.5 meq/L. It also gave an LDH (72 h, time 3 day) of 147.8 IU/L, a Na (72 h, time 3 day) of 141.2 meq/L and a PL (72 h, time 3 day) of 141.6 mg/dL. For the same compound, the RALB (72 h, time 3 day) was 3 g/dL, the TBIL (72 h, time 3 day) was 0.008 mg/dL and the TC (72 h, time 3 day) was 85.2 mg/dL. It also gave a TG (72 h, time 3 day) of 65.8 mg/dL, a TP (72 h, time 3 day) of 5.5 g/dL and a gamma-GTP (72 h, time 3 day) of 1.4 IU/L. The TERMINAL_BW ([…], time 7 day) was 261.5 g, the TERMINAL_BW ([…], time 14 day) was 302.8 g and the TERMINAL_BW ([…], time 28 day) was 376.7 g. For the same compound, the APTT ([…], time 7 day) was 21.6 s, the Bas ([…], time 7 day) was 0% and the Eos ([…], time 7 day) was 1.2%. It also gave a Fbg ([…], time 7 day) of 323 mg/dL, a Hb ([…], time 7 day) of 13.2 g/dL and a Ht ([…], time 7 day) of 38%. The Lym ([…], time 7 day) was 87.2%, the MCH ([…], time 7 day) was 20.7 pg and the MCHC ([…], time 7 day) was 34.8%. It also gave an MCV ([…], time 7 day) of 59.3 fL, a Mono ([…], time 7 day) of 2.2% and a Neu ([…], time 7 day) of 9%. The PT ([…], time 7 day) was 17 s, the Plat ([…], time 7 day) was 135.9 x10_4/uL and the RBC ([…], time 7 day) was 640.6 x10_4/ul. The Ret ([…], time 7 day) was 5.5%, the WBC ([…], time 7 day) was 90.6 x10_2/uL and the APTT ([…], time 14 day) was 23.4 s. It also gave a Bas ([…], time 14 day) of 0%, an Eos ([…], time 14 day) of 0.8% and a Fbg ([…], time 14 day) of 260.8 mg/dL. For the same compound, the Hb ([…], time 14 day) was 13.9 g/dL, the Ht ([…], time 14 day) was 39% and the Lym ([…], time 14 day) was 89.2%. For the same compound, the MCH ([…], time 14 day) was 20.2 pg, the MCHC ([…], time 14 day) was 35.6% and the MCV ([…], time 14 day) was 56.6 fL. The Mono ([…], time 14 day) was 2.2%, the Neu ([…], time 14 day) was 6.8% and the PT ([…], time 14 day) was 16.2 s. For the same compound, the Plat ([…], time 14 day) was 123.9 x10_4/uL, the RBC ([…], time 14 day) was 689.8 x10_4/ul and the Ret ([…], time 14 day) was 5%. It also gave a WBC ([…], time 14 day) of 109.6 x10_2/uL, an APTT ([…], time 28 day) of 24.8 s and a Bas ([…], time 28 day) of 0%. It also gave an Eos ([…], time 28 day) of 1.4%, a Fbg ([…], time 28 day) of 294.4 mg/dL and a Hb ([…], time 28 day) of 14.9 g/dL. The Ht ([…], time 28 day) was 40.5%, the Lym ([…], time 28 day) was 88.2% and the MCH ([…], time 28 day) was 19.6 pg. The MCHC ([…], time 28 day) was 36.8%, the MCV ([…], time 28 day) was 53.1 fL and the Mono ([…], time 28 day) was 1.8%. For the same compound, the Neu ([…], time 28 day) was 7.6%, the PT ([…], time 28 day) was 16.2 s and the Plat ([…], time 28 day) was 113.8 x10_4/uL. For the same compound, the RBC ([…], time 28 day) was 762.8 x10_4/ul, the Ret ([…], time 28 day) was 2.8% and the WBC ([…], time 28 day) was 98 x10_2/uL. For the same compound, the KIDNEY_L ([…], time 7 day) was 1.1 g, the KIDNEY_R ([…], time 7 day) was 1.1 g and the KIDNEY_TOTAL ([…], time 7 day) was 2.3 g. It also gave a KIDNEY_L ([…], time 14 day) of 1.2 g, a KIDNEY_R ([…], time 14 day) of 1.3 g and a KIDNEY_TOTAL ([…], time 14 day) of 2.5 g. The KIDNEY_L ([…], time 28 day) was 1.4 g, the KIDNEY_R ([…], time 28 day) was 1.4 g and the KIDNEY_TOTAL ([…], time 28 day) was 2.8 g. It also gave an LIVER ([…], time 7 day) of 12.2 g, an LIVER ([…], time 14 day) of 12.7 g and an LIVER ([…], time 28 day) of 14.6 g. The ALP ([…], time 7 day) was 1283 IU/L, the ALT ([…], time 7 day) was 35.4 IU/L and the AST ([…], time 7 day) was 64.4 IU/L. The BUN ([…], time 7 day) was 16.2 mg/dL, the CRE ([…], time 7 day) was 0.2 mg/dL and the Ca ([…], time 7 day) was 11 mg/dL. It also gave a Cl ([…], time 7 day) of 105.4 meq/L, a DBIL ([…], time 7 day) of 0.002 mg/dL and a GLC ([…], time 7 day) of 171.8 mg/dL. It also gave an IP ([…], time 7 day) of 7.3 mg/dL, a K ([…], time 7 day) of 4.2 meq/L and an LDH ([…], time 7 day) of 148.4 IU/L. For the same compound, the Na ([…], time 7 day) was 141.6 meq/L, the PL ([…], time 7 day) was 134.6 mg/dL and the RALB ([…], time 7 day) was 3 g/dL. It also gave a TBIL ([…], time 7 day) of 0.02 mg/dL, a TC ([…], time 7 day) of 70.4 mg/dL and a TG ([…], time 7 day) of 94.6 mg/dL. The TP ([…], time 7 day) was 5.6 g/dL, the gamma-GTP ([…], time 7 day) was 1.8 IU/L and the ALP ([…], time 14 day) was 1231.6 IU/L. For the same compound, the ALT ([…], time 14 day) was 35.2 IU/L, the AST ([…], time 14 day) was 66.4 IU/L and the BUN ([…], time 14 day) was 15.6 mg/dL. For the same compound, the CRE ([…], time 14 day) was 0.2 mg/dL, the Ca ([…], time 14 day) was 10.5 mg/dL and the Cl ([…], time 14 day) was 106 meq/L. The DBIL ([…], time 14 day) was 0 mg/dL, the GLC ([…], time 14 day) was 170.2 mg/dL and the IP ([…], time 14 day) was 6.7 mg/dL. The K ([…], time 14 day) was 4.2 meq/L, the LDH ([…], time 14 day) was 96.2 IU/L and the Na ([…], time 14 day) was 140.6 meq/L. The PL ([…], time 14 day) was 143 mg/dL, the RALB ([…], time 14 day) was 3 g/dL and the TBIL ([…], time 14 day) was 0.01 mg/dL. It also gave a TC ([…], time 14 day) of 73.6 mg/dL, a TG ([…], time 14 day) of 109.8 mg/dL and a TP ([…], time 14 day) of 5.6 g/dL. It also gave a gamma-GTP ([…], time 14 day) of 2.4 IU/L, an ALP ([…], time 28 day) of 1075.4 IU/L and an ALT ([…], time 28 day) of 31 IU/L. For the same compound, the AST ([…], time 28 day) was 62 IU/L, the BUN ([…], time 28 day) was 16.6 mg/dL and the CRE ([…], time 28 day) was 0.2 mg/dL. For the same compound, the Ca ([…], time 28 day) was 10.4 mg/dL, the Cl ([…], time 28 day) was 106.6 meq/L and the DBIL ([…], time 28 day) was 0.004 mg/dL. The GLC ([…], time 28 day) was 175.4 mg/dL, the IP ([…], time 28 day) was 5.9 mg/dL and the K ([…], time 28 day) was 4.2 meq/L. The LDH ([…], time 28 day) was 148 IU/L, the Na ([…], time 28 day) was 142.4 meq/L and the PL ([…], time 28 day) was 135.4 mg/dL. For the same compound, the RALB ([…], time 28 day) was 3.1 g/dL, the TBIL ([…], time 28 day) was 0.018 mg/dL and the TC ([…], time 28 day) was 67.6 mg/dL. It also gave a TG ([…], time 28 day) of 116.4 mg/dL, a TP ([…], time 28 day) of 5.9 g/dL and a gamma-GTP ([…], time 28 day) of 1.2 IU/L.
